What all share (type): biochemical
The target in assay [1] is T1, human IP6K1 (Homo sapiens, UniProt Q92551).
T1 construct: human IP6K1 (1-441) gene; GST; made in house; host or cells: Sf-9 insect cells
As to the kind of experiment: IP6K enzyme inhibitory assay (ADP-Glo Kinase Assay), human IP6K1. As to conditions: compound concentration 0.1 μM; read-out: ADP-Glo method inhibitory rate (%) human IP6K1. On the procedure:
(§1) IP6K Enzyme Inhibitory Assay
(§2) Human IP6K3 enzyme was prepared by transducing human IP6K3 (1-410) gene into BL21 (DE3) Escherichia coli and purifying by Ni-NTA (nickel-nitrilotriacetic acid) affinity column. […] The enzymes were used after preservation at −70° C. The IP6K enzyme inhibitory activity of the test compound was measured by the following experiment method and using ADP-Glo™ Kinase Assay (manufactured by Promega). A test compound diluted with an assay buffer (20 mM HEPES (pH 7.5), 6 mM MgCl2, 0.01% Tween-20, 1 mM DTT) was first added by 2 μL to a 384 well plate. […] The IP6K enzyme solution diluted with the assay buffer was added by 2 μL to start the enzyme reaction. Incubation was performed at room temperature for a given time (120 min for rat IP6K3 alone, 60 min for others). After incubation at room temperature, ADP-Glo solution prepared according to the protocol of Promega was added by 3 μL to the 384 well plate and reacted at room temperature for 30 min. Thereafter, Kinase-Detection solution was added by 6 μL to the 384 well plate and reacted at room temperature for 60 min. After the reaction, the luminescence intensity was measured by a plate reader Envision (manufactured by PerkinElmer).

The target of assay [2] is T2, human IP6K3 (Homo sapiens, UniProt Q96PC2).
T2 construct: human IP6K3 (1-410) gene; made in house; host or cells: BL21 (DE3) Escherichia coli
T2 sequence (Q96PC2 1-410): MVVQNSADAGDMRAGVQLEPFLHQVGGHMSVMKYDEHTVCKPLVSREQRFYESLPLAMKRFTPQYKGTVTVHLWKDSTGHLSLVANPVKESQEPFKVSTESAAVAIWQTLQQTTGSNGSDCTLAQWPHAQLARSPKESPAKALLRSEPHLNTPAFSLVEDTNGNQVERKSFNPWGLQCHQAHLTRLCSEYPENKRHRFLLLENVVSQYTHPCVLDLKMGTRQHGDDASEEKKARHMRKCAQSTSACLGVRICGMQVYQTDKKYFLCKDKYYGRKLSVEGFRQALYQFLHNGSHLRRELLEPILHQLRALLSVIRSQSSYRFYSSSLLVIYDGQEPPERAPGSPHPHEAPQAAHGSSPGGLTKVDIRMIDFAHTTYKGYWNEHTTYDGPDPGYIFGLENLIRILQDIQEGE
As to the kind of experiment: IP6K enzyme inhibitory assay (ADP-Glo Kinase Assay), human IP6K3. As to conditions: compound concentration 0.1 μM; read-out: ADP-Glo method inhibitory rate (%) human IP6K3. The protocol:
as §1, §2

For assay [3], the target named is T3, human IP6K2 (Homo sapiens, UniProt Q9UHH9).
T3 construct: human IP6K2 (1-426) gene; GST; made in house; host or cells: Sf-9 insect cells
T3 sequence (Q9UHH9 1-426): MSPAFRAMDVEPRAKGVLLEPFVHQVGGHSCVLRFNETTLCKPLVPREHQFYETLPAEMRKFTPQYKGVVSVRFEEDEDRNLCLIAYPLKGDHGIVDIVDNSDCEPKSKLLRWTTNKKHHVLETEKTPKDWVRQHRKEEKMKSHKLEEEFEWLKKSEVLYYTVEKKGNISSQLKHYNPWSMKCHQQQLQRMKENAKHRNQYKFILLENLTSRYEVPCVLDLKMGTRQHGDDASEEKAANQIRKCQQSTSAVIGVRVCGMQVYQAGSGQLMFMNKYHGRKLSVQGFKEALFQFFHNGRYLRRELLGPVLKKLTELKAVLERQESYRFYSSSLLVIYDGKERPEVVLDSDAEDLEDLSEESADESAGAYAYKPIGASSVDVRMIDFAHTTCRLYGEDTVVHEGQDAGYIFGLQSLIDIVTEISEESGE
The assay is described as follows: IP6K enzyme inhibitory assay (ADP-Glo Kinase Assay), human IP6K2. The note with it: compound concentration 0.1 μM; read-out: ADP-Glo method inhibitory rate (%) human IP6K2. On the procedure: as §1, §2

T1 sequence (Q92551 whole entry): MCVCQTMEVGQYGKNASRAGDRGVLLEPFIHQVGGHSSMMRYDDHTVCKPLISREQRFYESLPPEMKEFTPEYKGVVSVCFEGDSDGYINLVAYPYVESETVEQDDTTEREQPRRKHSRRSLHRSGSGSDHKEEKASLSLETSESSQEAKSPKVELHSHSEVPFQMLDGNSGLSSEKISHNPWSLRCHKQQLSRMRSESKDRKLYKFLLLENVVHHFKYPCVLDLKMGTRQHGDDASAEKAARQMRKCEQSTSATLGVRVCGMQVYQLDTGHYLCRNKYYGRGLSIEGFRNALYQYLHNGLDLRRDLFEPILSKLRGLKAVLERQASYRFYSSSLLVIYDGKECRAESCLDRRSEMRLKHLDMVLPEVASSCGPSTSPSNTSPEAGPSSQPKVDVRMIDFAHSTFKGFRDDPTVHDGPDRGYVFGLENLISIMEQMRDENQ

In the case of `O=C(O)c1ccc2c(c1)[C@]1(CC[C@H](Oc3ncc(Cl)cc3F)CC1)C(=O)N2` [Example 87, (1s,4s)-4-((5-chloro-3-fluoropyridin-2-yl)oxy)-2′-oxo-1′,2′-dihydrospiro[cyclohexane-1,3′-indole]-5′-carboxylic acid], the inhibition at 0.1 µM in assay [1] was 107%; in assay [2], 102%; in assay [3], 102%.

In the case of `COc1ccc(O[C@H]2CC[C@@]3(CC2)C(=O)Nc2ccc(C(=O)O)cc23)c(C#N)c1` [Example 70, (1r,4r)-4-(2-cyano-4-methoxyphenoxy)-2′-oxo-1′,2′-dihydrospiro[cyclohexane-1,3′-indole]-5′-carboxylic acid], the inhibition at 0.1 µM in assay [1], in assay [2] and in assay [3] was 99% each time.

On to `O=C(O)c1ccc2c(c1)[C@]1(CC[C@@H](Oc3cccc(F)c3F)CC1)C(=O)N2` [Example 59, (1r,4r)-4-(2,3-difluorophenoxy)-2′-oxo-1′,2′-dihydrospiro[cyclohexane-1,3′-indole]-5′-carboxylic acid], for which the inhibition at 0.1 µM in assay [1] stood at 87%; in assay [2], 97%; in assay [3], 86%.

Turning to `O=C(O)c1ccc2c(c1)[C@]1(CC[C@@H](Oc3cnc4c(c3)CCCO4)CC1)C(=O)N2` [Example 37, (1r,4r)-4-(3,4-dihydro-2H-pyrano[2,3-b]pyridin-6-yloxy)-2′-oxo-1′,2′-dihydrospiro[cyclohexane-1,3′-indole]-5′-carboxylic acid], the inhibition at 0.1 µM in assay [1] worked out at 51%; in assay [2], 82%; in assay [3], 50%.

For the molecule `O=C(O)c1ccc2c(c1)[C@]1(CC[C@@H](Oc3ccccc3C(F)(F)F)CC1)C(=O)N2` [Example 74, (1r,4r)-2′-oxo-4-(2-(trifluoromethyl)phenoxy)-1′,2′-dihydrospiro[cyclohexane-1,3′-indole]-5′-carboxylic acid], the inhibition at 0.1 µM in assay [1] was 93%; in assay [2], 92%; in assay [3], 92%.

`N#Cc1cc(Cl)ccc1O[C@H]1CC[C@@]2(CC1)C(=O)Nc1ccc(C(=O)O)cc12` [Example 7, (1r,4r)-4-(4-chloro-2-cyanophenoxy)-2′-oxo-1′,2′-dihydrospiro[cyclohexane-1,3′-indole]-5′-carboxylic acid]: the results for the inhibition at 0.1 µM in assay [1], in assay [2] and in assay [3] were 100%, 86% and 101%, respectively.

As for `N#Cc1ccc(O[C@H]2CC[C@@]3(CC2)C(=O)Nc2ccc(C(=O)O)cc23)c(Cl)c1` [Example 72, (1r,4r)-4-(2-chloro-4-cyanophenoxy)-2′-oxo-1′,2′-dihydrospiro[cyclohexane-1,3′-indole]-5′-carboxylic acid], the values for the inhibition at 0.1 µM in assay [1], in assay [2] and in assay [3] were 99%, 97% and 97%, respectively.

`Cc1ccc(C(F)(F)F)c(O[C@H]2CC[C@@]3(CC2)C(=O)Nc2ccc(C(=O)O)nc23)n1` [Example 18, (1r,4r)-4-((6-methyl-3-(trifluoromethyl)pyridin-2-yl)oxy)-2′-oxo-1′,2′-dihydrospiro[cyclohexane-1,3′-pyrrolo[3,2-b]pyridine]-5′-carboxylic acid]: the inhibition at 0.1 µM in assay [1] is 54%; in assay [2] it was 77%; in assay [3], 62%.

With `O=C(O)c1ccc2c(c1)[C@]1(CC[C@@H](Oc3ncc(Cl)cc3C(F)(F)F)CC1)C(=O)N2` [Example 28, (1r,4r)-4-((5-chloro-3-(trifluoromethyl)pyridin-2-yl)oxy)-2′-oxo-1′,2′-dihydrospiro[cyclohexane-1,3′-indole]-5′-carboxylic acid], the figures for the inhibition at 0.1 µM in assay [1], in assay [2] and in assay [3] were 95%, 96% and 98%, respectively.

For `O=C(O)c1ccc2c(n1)[C@]1(CC[C@H](Oc3ccc(Cl)cc3)CC1)C(=O)N2` [Example 88, (1s,4s)-4-(4-chlorophenoxy)-2′-oxo-1′,2′-dihydrospiro[cyclohexane-1,3′-pyrrolo[3,2-b]pyridine]-5′-carboxylic acid], the inhibition at 0.1 µM in assay [1] was 101%; in assay [2], 97%; in assay [3], 97%.

For `Cc1c(Cl)cnc(O[C@H]2CC[C@]3(CC2)C(=O)Nc2ccc(C(=O)O)nc23)c1C#N` [Example 106, (1s,4s)-4-((5-chloro-3-cyano-4-methylpyridin-2-yl)oxy)-2′-oxo-1′,2′-dihydrospiro[cyclohexane-1,3′-pyrrolo[3,2-b]pyridine]-5′-carboxylic acid], the inhibition at 0.1 µM in assay [1] is 96%; in assay [2], 95%; in assay [3], 97%.

Turning to `O=C(O)c1ccc2c(c1)[C@]1(CC[C@@H](Oc3ncc(C(F)(F)F)cc3Cl)CC1)C(=O)N2` [Example 29, (1r,4r)-4-((3-chloro-5-(trifluoromethyl)pyridin-2-yl)oxy)-2′-oxo-1′,2′-dihydrospiro[cyclohexane-1,3′-indole]-5′-carboxylic acid], the values for the inhibition at 0.1 µM in assay [1], in assay [2] and in assay [3] were 99%, 99% and 96%, respectively.

In the case of `O=C(O)c1ccc2c(c1)[C@]1(CC[C@@H](Oc3ncccc3Cl)CC1)C(=O)N2` [Example 24, (1r,4r)-4-((3-chloropyridin-2-yl)oxy)-2′-oxo-1′,2′-dihydrospiro[cyclohexane-1,3′-indole]-5′-carboxylic acid], the inhibition at 0.1 µM was 86% in assay [1], 92% in assay [2] and 92% in assay [3].

As to `Cc1ccc(O[C@H]2CC[C@@]3(CC2)C(=O)Nc2ccc(C(=O)O)cc23)cc1` [Example 43, (1r,4r)-4-(4-methylphenoxy)-2′-oxo-1′,2′-dihydrospiro[cyclohexane-1,3′-indole]-5′-carboxylic acid], the inhibition at 0.1 µM in assay [1] was 98%; in assay [2], 100%; in assay [3], 99%.

Consider `N#Cc1ccc(O[C@H]2CC[C@@]3(CC2)C(=O)Nc2ccc(C(=O)O)cc23)cc1` [Example 45, (1r,4r)-4-(4-cyanophenoxy)-2′-oxo-1′,2′-dihydrospiro[cyclohexane-1,3′-indole]-5′-carboxylic acid], for which the inhibition at 0.1 µM in assay [1] is 96%; in assay [2], 97%; in assay [3], 93%.

With `Cc1ccc(C(F)(F)F)c(O[C@H]2CC[C@@]3(CC2)C(=O)Nc2ccc(C(=O)O)cc23)n1` [Example 26], the inhibition at 0.1 µM in assay [1] amounted to 98%; in assay [2], 92%; in assay [3], 97%.

For `COc1cc(Cl)ccc1O[C@H]1CC[C@@]2(CC1)C(=O)Nc1ccc(C(=O)O)cc12` [Example 82, (1r,4r)-4-(4-chloro-2-methoxyphenoxy)-2′-oxo-1′,2′-dihydrospiro[cyclohexane-1,3′-indole]-5′-carboxylic acid], the results for the inhibition at 0.1 µM in assay [1], in assay [2] and in assay [3] were 98%, 99% and 101%, respectively.

For `O=C(O)c1ccc2c(c1)[C@]1(CC[C@@H](Oc3ccc(F)cc3Cl)CC1)C(=O)N2` [Example 68, (1r,4r)-4-(2-chloro-4-fluorophenoxy)-2′-oxo-1′,2′-dihydrospiro[cyclohexane-1,3′-indole]-5′-carboxylic acid], the figures for the inhibition at 0.1 µM in assay [1], in assay [2] and in assay [3] were 93%, 98% and 98%, respectively.

The values are drawn from patent US10968178B2, “IP6K inhibitors” (TAKEDA PHARMACEUTICAL COMPANY LIMITED, priority 2017, dated 2021).
